What all share (assay): Bliss interaction score (quartile over a dose matrix) (fitness difference); higher = more antagonism (negative = synergy)
In one assay the test system is S. aureus Newman. A digest of the protocol: (§1)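 The Bliss score was calculated by subtracting the expected fitness, the product of single-drug values, from the observed fitness. OD595 at entry into stationary phase, over the plate's robust no-drug mean and capped at 1, served as the fitness readout. Single-drug values were inferred from combination data, and scores are summarised by quartiles across technical, biological and donor/recipient replicates.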

Another assay relates to B. subtilis 168. A digest of the protocol: as §1
The next assay concerns S. pneumoniae D39V. In a few lines:
as §1

For another assay, the system named is S. aureus DSM 20231. A digest of the protocol: as §1

Molecules are shown by their SMILES.
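Note: first quartile when negative (synergy) and third quartile when positive (antagonism).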

With `O=C(O)[C@H]1/C(=C/CO)O[C@@H]2CC(=O)N21` [Clavulanic] + CCCCCCCCCC(=O)N[C@@H]1[C@H]([C@@H]([C@H](O[C@H]1OC2=C3C=C4C=C2OC5=C(C=C(C=C5)[C@H]([C@H]6C(=O)N[C@@H](C7=C(C(=CC(=C7)O)OC8[C@H]([C@H]([C@@H]([C@H](O8)CO)O)O)O)C9=C(C=CC(=C9)[C@H](C(=O)N6)NC(=O)[C@@H]4NC(=O)[C@@H]1C2=CC(=CC(=C2)OC2=C(C=CC(=C2)[C@H](C(=O)N[C@H](CC2=CC(=C(O3)C=C2)Cl)C(=O)N1)N)O)O)O)C(=O)O)O[C@H]1[C@@H]([C@H]([C@@H]([C@H](O1)CO)O)O)NC(=O)C)Cl)CO)O)O [Teicoplanin], the Bliss interaction score is -0.059 in the assay with S. aureus Newman (main component drawn), -0.178 in the assay on B. subtilis 168 (main component drawn), -0.0601 in the assay on S. pneumoniae D39V (main component drawn) and 0.119 with S. aureus DSM 20231 (main component drawn).
`O=C(O)[C@H]1/C(=C/CO)O[C@@H]2CC(=O)N21` [Clavulanic] + CCC[C@@H]1C[C@@H](C(=O)N[C@@H]([C@H]2O[C@H](SC)[C@H](O)[C@@H](O)[C@H]2O)[C@@H](C)O)N(C)C1 [Lincomycin]: the Bliss interaction score with S. aureus Newman is 0.132; in the assay with B. subtilis 168 it was -0.0568; in the assay on S. pneumoniae D39V, 0.0627; with S. aureus DSM 20231, -0.194.
On to `O=C(O)[C@H]1/C(=C/CO)O[C@@H]2CC(=O)N21` [Clavulanic] + CCC[C@@H]1C[C@@H](C(=O)N[C@@H]([C@H]2O[C@H](SC)[C@H](O)[C@@H](O)[C@H]2O)[C@H](C)Cl)N(C)C1 [Clindamycin], for which the Bliss interaction score in the assay on S. aureus Newman is 0.188; in the assay on B. subtilis 168 it was -0.0975; in the assay on S. pneumoniae D39V, -0.0802; in the assay with S. aureus DSM 20231 it was -0.148.
On the same counts, the results for `O=C(O)[C@H]1/C(=C/CO)O[C@@H]2CC(=O)N21` [Clavulanic] + CCN(CC)CCOC(=O)c1ccc(N)cc1 [Procaine] are -0.0729, -0.0363, 0.0863 and 0.0977.
With `O=C(O)[C@H]1/C(=C/CO)O[C@@H]2CC(=O)N21` [Clavulanic] + CC[C@H]1OC(=O)[C@H](C)C(=O)[C@H](C)[C@@H](O[C@@H]2O[C@H](C)C[C@H](N(C)C)[C@H]2O)[C@](C)(OC)C[C@@H](C)C(=O)[C@H](C)[C@H]2N(CCCCn3cnc(-c4cccnc4)c3)C(=O)O[C@]12C [Telithromycin], the Bliss interaction score in the assay on S. aureus Newman was 0.122; in the assay with B. subtilis 168 it was 0.0437; with S. pneumoniae D39V, -0.0431; with S. aureus DSM 20231 it was -0.0742.
On to `O=C(O)[C@H]1/C(=C/CO)O[C@@H]2CC(=O)N21` [Clavulanic] + CC[C@H]1OC(=O)[C@H](C)[C@@H](O[C@H]2C[C@@](C)(OC)[C@@H](O)[C@H](C)O2)[C@H](C)[C@@H](O[C@@H]2O[C@H](C)C[C@H](N(C)C)[C@H]2O)[C@](C)(O)C[C@@H](C)C(=O)[C@H](C)[C@@H](O)[C@]1(C)O [Erythromycin], for which the Bliss interaction score in the assay with S. aureus Newman is 0.237; in the assay with B. subtilis 168, 0.0508; in the assay with S. pneumoniae D39V, -0.0371; in the assay on S. aureus DSM 20231, -0.151.
For `O=C(O)[C@H]1/C(=C/CO)O[C@@H]2CC(=O)N21` [Clavulanic] + CN1C2=CC=CC=C2N=C3C1=CC=CC3=O [Pyocyanin], the Bliss interaction score is 0.0849 in the assay with S. aureus Newman, 0.0338 with B. subtilis 168, 0.0705 with S. pneumoniae D39V and -0.0632 with S. aureus DSM 20231.
`O=C(O)[C@H]1/C(=C/CO)O[C@@H]2CC(=O)N21` [Clavulanic] + CN(C)C(=O)C(CCN1CCC(O)(c2ccc(Cl)cc2)CC1)(c1ccccc1)c1ccccc1 [Loperamide]: the Bliss interaction score in the assay with S. aureus Newman was 0.209; in the assay with B. subtilis 168, 0.389; in the assay with S. pneumoniae D39V it was 0.0637; in the assay on S. aureus DSM 20231 it was -0.361.
Turning to `O=C(O)[C@H]1/C(=C/CO)O[C@@H]2CC(=O)N21` [Clavulanic] + CN(C)[C@@H]1C(O)=C(C(N)=O)C(=O)[C@@]2(O)C(O)=C3C(=O)c4c(O)ccc(Cl)c4[C@@](C)(O)[C@H]3C[C@@H]12 [Clortetracycline], the Bliss interaction score in the assay on S. aureus Newman is 0.161; in the assay with B. subtilis 168, 0.0785; in the assay on S. pneumoniae D39V, -0.0427; in the assay with S. aureus DSM 20231, -0.24.
The corresponding values for `O=C(O)[C@H]1/C(=C/CO)O[C@@H]2CC(=O)N21` [Clavulanic] + CN(C)c1cc(NC(=O)CNC(C)(C)C)c(O)c2c1C[C@H]1C[C@H]3[C@H](N(C)C)C(O)=C(C(N)=O)C(=O)[C@@]3(O)C(O)=C1C2=O [Tigecycline] are -0.0659, 0.0342, 0.0386 and 0.0703.
`O=C(O)[C@H]1/C(=C/CO)O[C@@H]2CC(=O)N21` [Clavulanic] + CN(N=O)C(=O)N[C@@H](C=O)[C@@H](O)[C@H](O)[C@H](O)CO [Streptozotocin]: the Bliss interaction score with S. aureus Newman was 0.197; in the assay on B. subtilis 168, -0.0541; with S. pneumoniae D39V, 0.059; in the assay on S. aureus DSM 20231, -0.0853.
On the same counts, the results for `O=C(O)[C@H]1/C(=C/CO)O[C@@H]2CC(=O)N21` [Clavulanic] + CN[C@@H]1[C@H](O)[C@H](NC)[C@H]2O[C@@]3(O)C(=O)C[C@@H](C)O[C@H]3O[C@@H]2[C@H]1O [Spectinomycin] are 0.104, 0.0479, -0.0465 and 0.137.
As to `O=C(O)[C@H]1/C(=C/CO)O[C@@H]2CC(=O)N21` [Clavulanic] + CN[C@H](CC(C)C)C(=O)N[C@H]1C(=O)N[C@@H](CC(N)=O)C(=O)N[C@H]2C(=O)N[C@H]3C(=O)N[C@H](C(=O)N[C@H](C(=O)O)c4cc(O)cc(O)c4-c4cc3ccc4O)[C@H](O)c3ccc(c(Cl)c3)Oc3cc2cc(c3O[C@@H]2O[C@H](CO)[C@@H](O)[C@H](O)[C@H]2O[C@H]2C[C@](C)(N)[C@H](O)[C@H](C)O2)Oc2ccc(cc2Cl)[C@H]1O [Vancomycin], the Bliss interaction score is -0.0409 in the assay with S. aureus Newman, -0.136 in the assay with B. subtilis 168, -0.0704 in the assay with S. pneumoniae D39V and 0.0812 in the assay with S. aureus DSM 20231.
Take `O=C(O)[C@H]1/C(=C/CO)O[C@@H]2CC(=O)N21` [Clavulanic] + CN[C@H](CC(C)C)C(=O)N[C@H]1C(=O)N[C@@H](CC(N)=O)C(=O)N[C@H]2C(=O)N[C@H]3C(=O)N[C@H](C(=O)N[C@H](C(=O)O)c4cc(O)cc(O)c4-c4cc3ccc4O)[C@H](O[C@H]3C[C@](C)(N)[C@@H](O)[C@H](C)O3)c3ccc(c(Cl)c3)Oc3cc2cc(c3O[C@@H]2O[C@H](CO)[C@@H](O)[C@H](O)[C@H]2O[C@H]2C[C@](C)(NCc3ccc(-c4ccc(Cl)cc4)cc3)[C@@H](O)[C@H](C)O2)Oc2ccc(cc2Cl)[C@H]1O [Oritavancin]: the Bliss interaction score is 0.197 in the assay on S. aureus Newman, -0.0388 with B. subtilis 168, 0.0545 in the assay on S. pneumoniae D39V and 0.0726 in the assay with S. aureus DSM 20231.
As to `O=C(O)[C@H]1/C(=C/CO)O[C@@H]2CC(=O)N21` [Clavulanic] + CO[C@@H]1[C@@H](OC(N)=O)[C@@H](O)[C@H](Oc2ccc3c(O)c(NC(=O)c4ccc(O)c(CC=C(C)C)c4)c(=O)oc3c2C)OC1(C)C [Novobiocin], the Bliss interaction score is 0.177 in the assay with S. aureus Newman, 0.0384 in the assay with B. subtilis 168, -0.0784 with S. pneumoniae D39V and 0.116 with S. aureus DSM 20231.
Turning to `O=C(O)[C@H]1/C(=C/CO)O[C@@H]2CC(=O)N21` [Clavulanic] + CO[C@@]12[C@H](COC(N)=O)C3=C(C(=O)C(C)=C(N)C3=O)N1C[C@@H]1N[C@@H]12 [MitomycinC], the Bliss interaction score was 0.129 with S. aureus Newman, -0.113 in the assay with B. subtilis 168, -0.0718 in the assay on S. pneumoniae D39V and -0.0996 with S. aureus DSM 20231.
On the same counts, the results for `O=C(O)[C@H]1/C(=C/CO)O[C@@H]2CC(=O)N21` [Clavulanic] + CO[C@H]1/C=C/O[C@@]2(C)Oc3c(C)c(O)c4c(O)c(c(/C=N/N5CCN(C)CC5)c(O)c4c3C2=O)NC(=O)/C(C)=C\C=C\[C@H](C)[C@H](O)[C@@H](C)[C@@H](O)[C@@H](C)[C@H](OC(C)=O)[C@@H]1C [Rifampicin] are -0.0368, 0.0612, -0.0766 and 0.112.
`O=C(O)[C@H]1/C(=C/CO)O[C@@H]2CC(=O)N21` [Clavulanic] + COc1c(N2C[C@@H]3CCCN[C@@H]3C2)c(F)cc2c(=O)c(C(=O)O)cn(C3CC3)c12 [Moxifloxacin]: the Bliss interaction score with S. aureus Newman was 0.218; in the assay with B. subtilis 168 it was -0.0241; in the assay with S. pneumoniae D39V, 0.062; with S. aureus DSM 20231, -0.0739.
